Patent US20160122758A1, “AGENTS FOR DOWNREGULATION OF THE ACTIVITY AND/OR AMOUNT OF BCL-XL AND/OR BCL-W” (YEDA RESEARCH AND DEVELOPMENT CO. LTD., priority 2013, published 2016)
Residues, ends and D or L forms follow the SMILES beside them. *: point of attachment. Cbz = O=C(OCc1ccccc1)*; CH2F = FC*

Legend:
[1] = test system: senescent IMR-90 or MEF cells; experiment: Viability assay, ABT-199 alone on senescent IMR-90 or MEF cells; assay type: cell-based, human, mouse; conditions: ABT-199 for 24 hours
Description: (§1) Human primary fibroblasts (IMR-90, BJ) were obtained from ATCC MEFs were prepared from day 13.5 embryos. All cultures were maintained in DMEM supplemented with 10% fetal bovine serum (Hyclone). Senescence was induced by treatment with Etoposide ([…], Sigma), or the introduction of oncogenic H-ras^v12 using infections into IMR-90 cells (as described by Narita, 2003).
(§2) Growing and senescent cells were plated in 12-well plates at 7.5×10^4 cells per well. The following day, cells were treated with DMSO control, ABT-737 (Selleckchem, USA) or ABT-199 (ChemieTek, USA) and cell viability was analyzed 24 hours thereafter. 300 μl of PrestoBlue Reagent (Invitrogen, USA) were added to each well, and plates were incubated for 20 minutes at 37 C. 100 μl samples were taken in duplicates to a 96 well plate and read at an OD of 540 nm using a Tecan plate reader (Infinite® M200). A three-hour pre incubation with 100 μM z-VAD-fmk (Santa Cruz, USA) was performed prior to the addition of ABT-737 where indicated.

[2] = test system: Etoposide treated senescent IMR-90 cells; experiment: Viability assay after siRNA transfection of Etoposide treated senescent IMR-90 cells; assay type: cell-based, human; conditions: 10 μM ABT-199 for 24 hours, three days post siRNA transfection
Description: as §1, §2
(§3) ON-TARGETplus SMARTpool small-interfering RNAs targeting p21, Bcl-2, Bcl-w, Bcl-xL and the nontargeting pool siRNAs (control) were transfected into cells with the Dharmafect 1 reagent (all from Dharmacon, Lafayette, Colo., USA). siRNAs were washed away 24 hours post transfection and viability was analyzed four days thereafter as described above.

[3] = test system: senescent human (IMR-90) and mouse (MEF) fibroblasts; experiment: Viability assay, ABT-737 on senescent and control IMR-90 and MEF fibroblasts; assay type: cell-based; conditions: ABT-737 for 24 hours
Description: as §1, §2
To further test the hypothesis that an increase in the levels of anti-apoptotic proteins Bcl-w and Bcl-xL could account for the apoptotic resistance of senescent cells by an independent approach, cells were treated with the pharmacological inhibitor of the Bcl-2 family of proteins, ABT-737 (Chauhan et al., 2007). […]

cleaved caspase-3 = experiment: Immunoblot for cleaved caspase-3 in IMR-90 cells treated with ABT-737 with or without z-VAD-fmk; assay type: cell-based, human
Description: Cells were lysed in RIPA buffer. Equal amounts of protein were separated on 12% SDS-polyacrylamide gels and transferred to PVDF membranes. Detection was performed using the following antibodies: anti-Rb (9313), anti-cleaved parp (9541), anti-cleaved caspase-3 (9661), anti-phospho-p53 (9284), anti-mouse-p53 (2524), anti-phospho-NF-κB (3033), anti-Bcl-2 (2870), anti-Bcl-w (2724) and anti-Bcl-xL (2764) were purchased from Cell Signaling Technology. Anti-human p53 (DO1 and PAb1801). Anti-p16 (sc-759), anti-mouse-p21 (sc-397), anti-NFκB p65 (sc-372) and anti-α-Tubulin (sc-9104) were obtained from Santa Cruz Biotechnology. Anti-human-p21 (556431) was obtained from BD Pharmingen, Anti-Mcl-1 (1239-1) was obtained from Epitomics.
as §2, with “indicated. […]” for “indicated.”

senescent IMR-90 cells = experiment: Viability assay, ABT-737 with or without z-VAD-fmk on IMR-90 cells; assay type: cell-based, human
Description: as §1, §2
Members of the Bcl-2 family negatively regulate apoptotic pathway (Azmi et al., 2011; Cory et al., 2003; Reed, 2008). To determine whether ABT-737 kills senescent cells via the apoptotic pathway, DNA damage induced senescent IMR-90 cells, oncogenic H-Ras^v12 induced senescent cells and control growing cells were treated with ABT-737 alone or in combination with pan-caspase inhibitor z-VAD-fmk. […]

[4] = test system: Etoposide treated BJ cells; experiment: Viability assay after siRNA transfection, senescent BJ cells; assay type: cell-based, human; conditions: Etoposide treated BJ cells with sip21; z-VAD-fmk four days with daily replenishment
Description: as §1, §2
as §3, with “above. […]” for “above.”

`CC1(C)CCC(CN2CCN(c3ccc(C(=O)NS(=O)(=O)c4ccc(NCC5CCOCC5)c([N+](=O)[O-])c4)c(Oc4cnc5[nH]ccc5c4)c3)CC2)=C(c2ccc(Cl)cc2)C1` [ABT-199] was tested, and the “effect on viability of oncogenic H-ras^v12 induced senescent IMR-90 cells” value [1] was “minor decrease in cell viability”, the “effect on viability of senescent cells, Bcl-2 inhibition alone” value ([1]; IMR-90 or MEF senescent cells) was “almost no effect” and the “additive effect of Bcl-2 inhibition on top of Bcl-w and Bcl-xL knockdown on senescent cell viability” value [2] was “statistically significant, but minor additive effect”.

In the case of `CN(C)CC[C@H](CSc1ccccc1)Nc1ccc(S(=O)(=O)NC(=O)c2ccc(N3CCN(Cc4ccccc4-c4ccc(Cl)cc4)CC3)cc2)cc1[N+](=O)[O-]` [ABT-737], the “reduction of viability of senescent cells” value ([3]; Etoposide or H-Ras^V12 induced senescent IMR-90 and MEF) is reported as 50%, the “effect on viability of control cells” value ([3]; growing, vehicle treated or vector transduced cells) is reported as “minor effect” and the caspase-3 cleavage (cleaved caspase-3; senescent IMR-90 cells treated with ABT-737) is reported as “caspase-3 cleavage”. The “death of senescent cells” value (senescent IMR-90 cells; ABT-737 alone, 24 hours, DNA damage or H-Ras^v12 induced senescent IMR-90) was “induced death”.

For `COC(=O)C[C@H](NC(=O)[C@H](C)NC(=O)[C@@H](NC(=O)OCc1ccccc1)C(C)C)C(=O)CF` [z-VAD-fmk] (Cbz-Val-Ala-Asp(OMe)-CH2F), the “caspase-3 cleavage after addition of z-VAD-fmk to ABT-737” value (cleaved caspase-3; senescent IMR-90 cells, ABT-737 plus z-VAD-fmk) was “abolished this cleavage”, the “rescue of cell death caused by p21 knockdown” value [4] was 20% and the “death of senescent cells following ABT-737 treatment, in presence of pan-caspase inhibitor” value (senescent IMR-90 cells; 100 μM z-VAD-fmk three-hour pre incubation, then ABT-737) was “prevented death”.
